A short description of series [1]: Clearance in rat at 5 mg/kg, iv and 10 mg/kg, po. The class given is ADME, organism-based. Conditions: in vivo.
For series [2], the target named is Voltage-gated inwardly rectifying potassium channel KCNH2 (Homo sapiens, UniProt Q12809). Put plainly: Inhibition of human ERG by fluorescence-based thallium flux assay.
Series [3] in a line: Plasma concentration in rat at 10 mg/kg, po after 6 hrs. In kind it is ADME, organism-based. Also noted: dose 10 mg/kg, route oral.
Series [4] can be described thus: Plasma concentration in rat at 5 mg/kg, iv after 6 hrs. In kind it is ADME, organism-based. Also on record: dose 5 mg/kg, route intravenous.
Series [5] has as its target T1, Nuclear receptor subfamily 1 group I member 2 (Homo sapiens, UniProt O75469).
T1 sequence (O75469 whole entry): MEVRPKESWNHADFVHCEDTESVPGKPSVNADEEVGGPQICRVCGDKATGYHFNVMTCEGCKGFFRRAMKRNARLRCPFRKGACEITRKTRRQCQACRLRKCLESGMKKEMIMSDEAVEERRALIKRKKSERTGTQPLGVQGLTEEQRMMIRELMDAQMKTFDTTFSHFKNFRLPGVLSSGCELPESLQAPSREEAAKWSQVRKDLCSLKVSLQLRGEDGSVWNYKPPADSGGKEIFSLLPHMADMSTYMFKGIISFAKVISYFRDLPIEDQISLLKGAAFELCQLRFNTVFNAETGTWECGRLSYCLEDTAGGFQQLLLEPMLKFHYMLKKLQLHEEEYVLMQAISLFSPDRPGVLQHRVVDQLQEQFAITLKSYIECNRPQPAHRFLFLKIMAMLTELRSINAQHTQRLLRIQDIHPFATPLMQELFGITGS
Nature of the series: Transactivation of human PXR expressed in human HepG2 cells by luciferase reporter gene assay. In kind it is cell-based. In general terms: Reporter assays use an easily measured gene product as a stand-in for the process of interest.

A further series concerns the target Cytochrome P450 2C19 (Homo sapiens, UniProt P33261). Put plainly: Inhibition of CYP2C19 in human liver microsomes after 30 mins in presence of NADPH. In kind it is ADME.
In series [6] the test system is Liver microsome. Conditions: human, microsomes.
The subject of the next series is HepG2. Put plainly: Cytotoxicity against human HepG2 cells. The class given is cell-based.
The target of the next series is T2, Cytochrome P450 1A2 (Homo sapiens, UniProt P05177).
T2 sequence (P05177 whole entry): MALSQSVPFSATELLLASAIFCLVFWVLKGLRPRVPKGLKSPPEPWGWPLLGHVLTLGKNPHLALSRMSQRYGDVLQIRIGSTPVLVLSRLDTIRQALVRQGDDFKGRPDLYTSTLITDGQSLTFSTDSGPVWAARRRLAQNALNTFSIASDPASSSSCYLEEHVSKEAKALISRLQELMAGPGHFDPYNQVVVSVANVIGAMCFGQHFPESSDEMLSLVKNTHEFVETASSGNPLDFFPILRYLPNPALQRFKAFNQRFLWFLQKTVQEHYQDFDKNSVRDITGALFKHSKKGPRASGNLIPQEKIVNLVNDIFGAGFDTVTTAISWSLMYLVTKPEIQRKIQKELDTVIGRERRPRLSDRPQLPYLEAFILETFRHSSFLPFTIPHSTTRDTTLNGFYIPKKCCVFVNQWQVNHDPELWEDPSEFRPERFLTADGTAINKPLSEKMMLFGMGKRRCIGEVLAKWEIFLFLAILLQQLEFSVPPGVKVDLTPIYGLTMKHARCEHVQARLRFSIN
Nature of the series: Inhibition of CYP1A2 in human liver microsomes after 30 mins in presence of NADPH. The class given is ADME.

Another series concerns the target Cytochrome P450 3A4 (Homo sapiens, UniProt P08684). Nature of the series: Inhibition of CYP3A4 in human liver microsomes using benzyloxyresorufin as substrate after 30 mins in presence of NADPH. In kind it is ADME. For orientation: Liver microsomes are vesicles of endoplasmic reticulum, rich in cytochrome P450 enzymes.
The target of another series is Cytochrome P450 2C9 (Homo sapiens, UniProt P11712). Nature of the series: Inhibition of CYP2C9 in human liver microsomes after 30 mins in presence of NADPH. The class given is ADME.
Sequence of Cytochrome P450 2C9 (P11712 whole entry): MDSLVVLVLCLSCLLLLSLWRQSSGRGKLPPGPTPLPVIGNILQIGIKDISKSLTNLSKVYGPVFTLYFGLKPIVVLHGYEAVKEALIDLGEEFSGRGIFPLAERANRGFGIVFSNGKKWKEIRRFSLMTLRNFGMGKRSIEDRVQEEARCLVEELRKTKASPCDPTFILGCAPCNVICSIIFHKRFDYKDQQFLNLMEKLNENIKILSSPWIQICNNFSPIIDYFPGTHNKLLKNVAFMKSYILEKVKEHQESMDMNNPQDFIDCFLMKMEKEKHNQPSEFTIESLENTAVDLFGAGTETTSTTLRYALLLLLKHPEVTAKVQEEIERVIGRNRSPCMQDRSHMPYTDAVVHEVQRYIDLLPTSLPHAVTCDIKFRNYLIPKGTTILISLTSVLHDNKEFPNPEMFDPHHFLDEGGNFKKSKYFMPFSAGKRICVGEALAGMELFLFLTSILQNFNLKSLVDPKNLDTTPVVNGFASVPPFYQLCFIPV
Series [7] is described as follows: Drug uptake in rat liver at 5 mg/kg, iv after 6 hrs. Also on record: dose 5 mg/kg, route intravenous. As to conditions: read-out: Drug uptake. The class given is ADME, organism-based.
Series [8] in a line: Cytotoxicity against human HuH7 cells by Alamar blue assay. In kind it is cell-based. Conditions: Huh-7 cells. In general terms: Resazurin is reduced to fluorescent resorufin, in cell work by metabolically active cells.
Series [9] can be described thus: AUC (0 to 6 hrs) in rat at 10 mg/kg, po. The class given is ADME, organism-based. Also noted: time < 6 hr, dose 10 mg/kg, route oral. Conditions: plasma.
Series [10] deals with Hepatitis C virus. Nature of the series: Antiviral activity against Hepatitis C virus Con1 genotype 1b infected in human HuH7 cells after 3 days by FRET assay in presence of 40% human serum. In kind it is functional, organism-based, Hepacivirus hominis. As to conditions: isolate Con1, Huh-7, 72 h.
Series [11] concerns Hepatitis C virus. Nature of the series: Antiviral activity against Hepatitis C virus Con1 genotype 1b infected in human HuH7 cells after 3 days by FRET assay. In kind it is functional, organism-based, Hepacivirus hominis. As to conditions: isolate Con1, Huh-7, 72 h.
A short description of series [12]: Drug uptake in rat liver at 10 mg/kg, po after 6 hrs. In kind it is ADME, organism-based. Also noted: dose 10 mg/kg, route oral. Conditions: read-out: Drug uptake.
A short description of series [13]: Solubility of the compound in amorphous form in phosphate buffer at pH 6.5. In kind it is physicochemical.
Another series has as its target Cytochrome P450 2D6 (Homo sapiens, UniProt P10635). Put plainly: Inhibition of CYP2D6 in human liver microsomes after 30 mins in presence of NADPH. In kind it is ADME.
Series [14] is described as follows: Permeability of the compound at pH 7.4 by PAMPA. In kind it is physicochemical. As to conditions: read-out: permeability.
Series [15] has as its system Liver microsome. As to conditions: rat, microsomes.
In series [16] the test system is Hepatitis C virus. Put plainly: Antiviral activity against Hepatitis C virus H77c genotype 1a infected in human HuH7 cells after 3 days by FRET assay. In kind it is functional, organism-based, Hepacivirus hominis. As to conditions: genotype 1a H77, Huh-7, 72 h.
Series [17] addresses Sodium channel protein type 5 subunit alpha (Homo sapiens, UniProt Q14524). Put plainly: Inhibition of human NaV1.5 expressed in HEK293 cells by fluorescence-based thallium flux assay. The class given is cell-based.
The nature of series [18]: AUC (0 to 6 hrs) in rat at 5 mg/kg, iv. The class given is ADME, organism-based. Also noted: time < 6 hr, dose 5 mg/kg, route intravenous. Conditions: plasma.
In the next series the target is T3, PXR (NR1I2) (Homo sapiens, UniProt O75469).
T3 sequence (O75469 whole entry): T1 sequence (O75469 whole entry)
Put plainly: Transactivation of human PXR expressed in human HepG2 cells by luciferase reporter gene assay relative to control. In kind it is cell-based. Conditions: HepG2 cells expressing human PXR, read-out: %max.

The subject of series [19] is Hepatitis C virus. Nature of the series: Ratio of EC50 for Hepatitis C virus Con1 genotype 1b in presence of 40% human serum to EC50 for Hepatitis C virus Con1 genotype 1b. The class given is functional, Hepacivirus hominis, isolate Con1.

Here are results for two compounds from ChEMBL document CHEMBL3124792, “Discovery and preclinical characterization of the cyclopropylindolobenzazepine BMS-791325, a potent allosteric inhibitor of the hepatitis C virus NS5B polymerase” (J Med Chem, 2014).

≈ marks a conversion by molar mass, not a printed value. Bounds are passed on as bounds.

As a reminder, the EC50 is the concentration giving half of the maximal effect. As usually defined, the CC50 is the concentration at which the toxic effect on the cells reaches its halfway point. Low readings indicate harm at low concentration, high ones better tolerance by the cells. A word on the AUC(0-t): it is exposure summed from dosing to a finite time, without extrapolation to infinity. A low value points to low exposure. By solubility is commonly meant the dissolved amount per volume that the medium holds. High values mean much dissolved substance, low ones little dissolved substance.

Sequence of Cytochrome P450 2C19 (P33261 whole entry): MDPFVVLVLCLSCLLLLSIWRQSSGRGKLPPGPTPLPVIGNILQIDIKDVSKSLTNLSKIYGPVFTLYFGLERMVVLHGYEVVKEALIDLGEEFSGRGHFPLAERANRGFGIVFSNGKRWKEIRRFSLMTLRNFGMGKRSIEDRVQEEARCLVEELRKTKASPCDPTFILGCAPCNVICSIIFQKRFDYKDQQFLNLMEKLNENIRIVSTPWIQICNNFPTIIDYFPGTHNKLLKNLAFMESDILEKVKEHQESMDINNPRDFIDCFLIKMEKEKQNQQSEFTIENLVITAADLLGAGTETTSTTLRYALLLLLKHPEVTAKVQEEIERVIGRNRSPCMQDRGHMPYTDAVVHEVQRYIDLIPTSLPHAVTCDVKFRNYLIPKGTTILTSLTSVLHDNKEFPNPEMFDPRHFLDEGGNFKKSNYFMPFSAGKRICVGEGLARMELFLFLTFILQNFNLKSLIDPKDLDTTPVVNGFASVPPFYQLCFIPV
Sequence of Voltage-gated inwardly rectifying potassium channel KCNH2 (Q12809 whole entry): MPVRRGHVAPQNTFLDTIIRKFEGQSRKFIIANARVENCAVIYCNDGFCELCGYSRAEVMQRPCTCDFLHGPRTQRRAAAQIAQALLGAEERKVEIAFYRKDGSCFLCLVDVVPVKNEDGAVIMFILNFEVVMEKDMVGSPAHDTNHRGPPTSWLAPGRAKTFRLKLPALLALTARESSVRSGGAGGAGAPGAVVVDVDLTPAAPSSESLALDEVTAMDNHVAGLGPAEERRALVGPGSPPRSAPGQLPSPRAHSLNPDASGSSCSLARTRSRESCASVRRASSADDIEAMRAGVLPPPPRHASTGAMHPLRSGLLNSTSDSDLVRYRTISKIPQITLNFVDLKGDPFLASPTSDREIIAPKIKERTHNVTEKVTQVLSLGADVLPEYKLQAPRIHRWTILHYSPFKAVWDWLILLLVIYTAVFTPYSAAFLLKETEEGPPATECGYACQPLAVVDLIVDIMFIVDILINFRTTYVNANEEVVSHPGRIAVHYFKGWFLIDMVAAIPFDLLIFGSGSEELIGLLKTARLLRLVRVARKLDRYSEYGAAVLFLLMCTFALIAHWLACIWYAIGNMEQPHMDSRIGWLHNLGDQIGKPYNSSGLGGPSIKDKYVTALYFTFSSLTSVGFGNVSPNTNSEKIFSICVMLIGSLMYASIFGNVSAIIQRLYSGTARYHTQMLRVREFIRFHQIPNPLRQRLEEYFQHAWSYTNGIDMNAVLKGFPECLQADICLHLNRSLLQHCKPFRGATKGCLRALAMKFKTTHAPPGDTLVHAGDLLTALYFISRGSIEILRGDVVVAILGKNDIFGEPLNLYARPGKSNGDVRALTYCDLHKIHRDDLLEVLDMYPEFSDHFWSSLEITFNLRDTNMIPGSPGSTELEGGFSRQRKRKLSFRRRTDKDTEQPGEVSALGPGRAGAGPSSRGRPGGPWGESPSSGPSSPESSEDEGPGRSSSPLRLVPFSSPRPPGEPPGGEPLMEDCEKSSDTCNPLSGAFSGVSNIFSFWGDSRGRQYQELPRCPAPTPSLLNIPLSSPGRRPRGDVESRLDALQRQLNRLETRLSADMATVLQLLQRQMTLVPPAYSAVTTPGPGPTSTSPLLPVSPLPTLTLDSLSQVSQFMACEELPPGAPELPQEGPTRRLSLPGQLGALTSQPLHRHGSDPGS
Sequence of Cytochrome P450 2D6 (P10635 whole entry): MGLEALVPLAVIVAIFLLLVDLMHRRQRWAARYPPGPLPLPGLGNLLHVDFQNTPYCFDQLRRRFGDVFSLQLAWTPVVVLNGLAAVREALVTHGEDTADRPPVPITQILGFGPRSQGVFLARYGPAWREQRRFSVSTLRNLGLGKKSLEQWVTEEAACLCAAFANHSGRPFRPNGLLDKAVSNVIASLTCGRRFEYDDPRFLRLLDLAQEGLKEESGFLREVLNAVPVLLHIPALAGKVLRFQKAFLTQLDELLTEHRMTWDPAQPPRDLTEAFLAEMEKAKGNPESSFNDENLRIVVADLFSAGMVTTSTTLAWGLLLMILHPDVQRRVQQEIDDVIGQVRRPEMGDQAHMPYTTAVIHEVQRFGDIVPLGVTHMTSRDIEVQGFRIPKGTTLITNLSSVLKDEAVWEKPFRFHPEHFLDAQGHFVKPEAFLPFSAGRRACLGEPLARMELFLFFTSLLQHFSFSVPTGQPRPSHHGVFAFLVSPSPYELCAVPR
Sequence of Cytochrome P450 3A4 (P08684 whole entry): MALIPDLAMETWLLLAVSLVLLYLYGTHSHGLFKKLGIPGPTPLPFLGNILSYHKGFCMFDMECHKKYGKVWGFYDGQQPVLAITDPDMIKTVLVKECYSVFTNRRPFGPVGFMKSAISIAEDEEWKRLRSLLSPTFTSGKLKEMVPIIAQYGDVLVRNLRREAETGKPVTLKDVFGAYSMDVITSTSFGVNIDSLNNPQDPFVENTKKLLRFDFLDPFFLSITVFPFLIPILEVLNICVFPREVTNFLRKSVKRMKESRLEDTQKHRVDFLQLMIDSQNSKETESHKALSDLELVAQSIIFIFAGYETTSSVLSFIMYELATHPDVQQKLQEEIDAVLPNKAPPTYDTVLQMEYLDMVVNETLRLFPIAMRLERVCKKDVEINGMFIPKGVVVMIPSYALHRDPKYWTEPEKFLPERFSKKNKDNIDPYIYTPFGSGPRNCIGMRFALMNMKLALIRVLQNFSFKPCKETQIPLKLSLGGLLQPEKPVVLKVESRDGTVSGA

On to `COc1ccc2c(c1)[C@@H]1C[C@]1(C(=O)N1C3CC1CN(C)C3)Cn1c-2c(C2CCCCC2)c2ccc(C(=O)NS(=O)(=O)N(C)C)cc21`, for which the clearance in [1] amounted to 9 mL/min/kg. Besides, the EC50 in [2] was 20 µM; in [5], over 50 µM; on Cytochrome P450 2C19 it was over 40 µM; in the series with HepG2, 25 µM; on Cytochrome P450 1A2, over 40 µM; at Cytochrome P450 3A4, 14 µM. For the same compound, the concentration giving a half-maximal response (EC50) at Cytochrome P450 2C9 was over 40 µM; with Hepatitis C virus [10], 0.028 µM; with Hepatitis C virus [11], 0.005 µM; on Cytochrome P450 2D6, over 40 µM; with Hepatitis C virus [16] it was 0.006 µM; in [17], 30 µM. Also, the concentration at 6 h in series [3] worked out at 0.44 µM; in series [4], 0.409 µM; in series [7] it was 17.5 µM; in series [12], 14.3 µM. Besides, the Stability with Liver microsome [6] and in the series on Liver microsome [15] was 98% each time. In addition, half-maximal cytotoxicity in series [8] (CC50) was put at 13 µM. In addition, the area under the curve AUC(0-t) at 6 h in [9] turned out to be 4.93 µM·h; in [18], 11.2 µM·h. Also, the concentration in solution in [13] (solubility) was 760 µg/mL (≈ 1180 µM). Moreover, the Papp in series [14] was found to be 43 ×10⁻⁶ cm/s.

For the compound `COC[C@H]1CN(C(=O)[C@]23C[C@H]2c2cc(OC)ccc2-c2c(C4CCCCC4)c4ccc(C(=O)NS(=O)(=O)N(C)C)cc4n2C3)CCO1`, the Emax on PXR (NR1I2) was 12%. For the same compound, the EC50 in series [5] is over 50 µM; with Hepatitis C virus [10] it was 0.036 µM; in the series with Hepatitis C virus [11] it was 0.012 µM; in the series with Hepatitis C virus [16], 0.006 µM. Also, the CC50 in [8] was over 10 µM. In addition, the “Ratio EC50” value in the series with Hepatitis C virus [19] was 3.
